Drawing on ChEMBL document CHEMBL1127225, “Gem-cycloalkyl substituted thiol inhibitors of neutral endopeptidase 24.11. Synthesis via nucleophilic opening of 2,2-spiro--lactones” (Bioorg Med Chem Lett, 1993), this text covers IC50 for five compounds.

The target in this experiment is T1, Neprilysin (Rattus norvegicus, UniProt P07861).
T1 sequence (P07861 whole entry): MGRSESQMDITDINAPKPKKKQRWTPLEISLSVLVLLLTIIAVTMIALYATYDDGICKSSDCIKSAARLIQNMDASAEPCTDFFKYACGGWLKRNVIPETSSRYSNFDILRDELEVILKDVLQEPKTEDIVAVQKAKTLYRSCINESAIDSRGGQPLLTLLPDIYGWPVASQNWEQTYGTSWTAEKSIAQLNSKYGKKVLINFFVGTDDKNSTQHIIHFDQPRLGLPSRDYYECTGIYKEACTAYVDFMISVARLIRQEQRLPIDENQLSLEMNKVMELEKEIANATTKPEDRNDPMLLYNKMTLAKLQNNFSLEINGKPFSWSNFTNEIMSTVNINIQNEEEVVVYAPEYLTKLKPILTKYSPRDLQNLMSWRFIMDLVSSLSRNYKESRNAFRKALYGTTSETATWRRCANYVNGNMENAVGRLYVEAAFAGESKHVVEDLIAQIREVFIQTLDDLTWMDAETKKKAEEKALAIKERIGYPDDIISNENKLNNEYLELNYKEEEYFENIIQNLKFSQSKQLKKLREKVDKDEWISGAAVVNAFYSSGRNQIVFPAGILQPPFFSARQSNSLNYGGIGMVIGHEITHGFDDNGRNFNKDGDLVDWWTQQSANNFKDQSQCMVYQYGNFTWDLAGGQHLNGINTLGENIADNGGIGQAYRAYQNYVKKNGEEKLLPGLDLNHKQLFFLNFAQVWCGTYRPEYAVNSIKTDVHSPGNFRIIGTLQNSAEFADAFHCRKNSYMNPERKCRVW
Kind of experiment: The compound was tested for its inhibitory activity against neutral endopeptidase ([…]) in rat kidney.

For orientation: IC50 means the concentration that gives 50% inhibition. Read a low IC50 as higher potency. As for `O=C(O)[C@H]1CCC[C@@H](NC(=O)C2(CS)CCCC2)C1`, the half-inhibitory concentration (IC50) amounted to 215 nM.
The compound `O=C(O)[C@H]1CCC[C@@H](NC(=O)C2(CS)CCCCC2)C1` showed a 50% inhibitory concentration (IC50) of 310 nM.
As for `O=C(N[C@@H]1CCC[C@H](C(=O)O)C1)C(CS)Cc1ccccc1` (stereo not given in full), the figure is 180 nM.
`O=C(O)[C@H](Cc1ccccc1)NC(=O)C1(CS)CCCC1` showed an IC50 of 220 nM.
As for `COCCOC[C@H](CC1(C(=O)N[C@H]2CC[C@@H](C(=O)O)CC2)CCCC1)C(=O)O` [CANDOXATRILAT], the figure is 38 nM.
